What was measured:
ORYSAT (Rice, Tebonnet) [1] = assay: Postemergence herbicidal evaluation; assay type: in vivo, Oryza sativa, (L.) Tebonnet; conditions: postemergence
In short: (§1)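 Two-week seedlings sprayed postemergence at 40 psi; formulation: 1:1 acetone/water, 0.5% TWEEN 20; application ≈0.0156–0.500 kg/ha. Greenhouse grow-out, then 0–9 visual scoring at 4–5 weeks.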

[2] = tested on: GLXMAW (Soybean, Williams); assay: Preemergence herbicidal evaluation; assay type: in vivo, Glycine max, (L.) Merr. cv Williams; conditions: rated 4-5 weeks after treatment
In short: (§2)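 Scores (0–9) reflect visual comparison with control plants for stand, vigor, malformation, size and chlorosis. Compound was applied to the soil after sowing, before emergence, as an aqueous acetone spray (about 0.0156–0.500 kg/ha), and cups were kept in a greenhouse for 4–5 weeks.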

CASOB (Sicklepod) = assay: Preemergence herbicidal evaluation; assay type: in vivo, Cassia obtusifolia; conditions: rated 4-5 weeks after treatment
In short: as §2

ORYSAT (Rice, Tebonnet) [3] = assay: Preemergence herbicidal evaluation; assay type: in vivo, Oryza sativa, (L.) Tebonnet; conditions: rated 4-5 weeks after treatment
In short: as §2

[4] = tested on: ECHORC (Watergrass (Calif.)); assay: Preemergence weed control under flooded paddy conditions; assay type: in vivo, Echinochloa oryzoides; conditions: rated 3-4 weeks after treatment
In short: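 Silt loam, seeds in top 0.5 cm; flood held 1.5-3 cm; test cpd as acetone/water 50/50 into flood water, ~0.0313-0.500 kg/ha a.i.; greenhouse 3-4 wk; visual 0-9 score vs control.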

[5] = tested on: SAGPY (Arrowhead (Pygmaea)); assay: as above; assay type: in vivo, Sagittaria pygmaea; conditions: rated 3-4 weeks after treatment
In short: (§3)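 Greenhouse paddy assay. Acetone/water (50/50 v/v) solutions dosed into flood water, equivalent to about 0.0313 to 0.500 kg/ha active ingredient, over seeds planted 0.5 cm deep in silt loam. Score: 0-9 visual, based on stand, vigor, malformation, size and chlorosis, 3 to 4 weeks after treatment.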

ZEAMX (Corn, Field) = assay: Postemergence herbicidal evaluation; assay type: in vivo, Zea mays; conditions: postemergence
In short: as §1

GALAP (Galium) = assay: Preemergence herbicidal evaluation; assay type: in vivo, Galium aparine; conditions: rated 4-5 weeks after treatment
In short: as §2

AMBEL (Ragweed, Common) [6] = assay: Postemergence herbicidal evaluation; assay type: in vivo, Ambrosia artemisifolia; conditions: postemergence
In short: as §1

[7] = tested on: TRZAWR (Wheat, Winter, cv Riband); assay: Preemergence herbicidal evaluation; assay type: in vivo, Triticum aestivum; conditions: rated 4-5 weeks after treatment
In short: as §2

ABUTH (Velvetleaf) = assay: Postemergence herbicidal evaluation; assay type: in vivo, Abutilon theophrasti; conditions: postemergence
In short: as §1

CYPSE (Flatsedge) = assay: Preemergence weed control under flooded paddy conditions; assay type: in vivo, Cyperus serotinus; conditions: rated 3-4 weeks after treatment
In short: as §3

[8] = tested on: IPOHE (Morningglory, Ivyleaf); assay: Preemergence herbicidal evaluation; assay type: in vivo, Ipomoea hederacea; conditions: rated 4-5 weeks after treatment
In short: as §2

SETVI (Foxtail, Green) = assay: Preemergence herbicidal evaluation; assay type: in vivo, Setaria viridis; conditions: rated 4-5 weeks after treatment
In short: as §2

[9] = tested on: CHEAL (Lambsquarters, Common); assay: Preemergence herbicidal evaluation; assay type: in vivo, Chenopodium album; conditions: rated 4-5 weeks after treatment
In short: as §2

AMBEL (Ragweed, Common) [10] = assay: Preemergence herbicidal evaluation; assay type: in vivo, Ambrosia artemisifolia; conditions: rated 4-5 weeks after treatment
In short: as §2

## C#CCOC(=O)CN1C(=O)CSC1=Nc1cc(-n2c(=O)cc(C(F)(F)F)n(C)c2=O)c(F)cc1Cl [Compound 115, 2-Propynyl 2-{{2-chloro-5-[3,6-dihydro-3-methyl-2,6-dioxo-4-(trifluoromethyl)-1(2H)-pyrimidinyl]-4-fluorophenyl}imino}-4-oxo-3-thiazolidineacetate]
ORYSAT (Rice, Tebonnet) [1]; rate 0.0158 kg/ha
  Herbicidal rating ORYSAT: 1.5
ORYSAT (Rice, Tebonnet) [1]; rate 0.0315 kg/ha
  Herbicidal rating ORYSAT: 2.0
ORYSAT (Rice, Tebonnet) [1]; rate 0.0630 kg/ha
  Herbicidal rating ORYSAT: 2.5
[2]; rate 0.0156 kg/ha
  Preemergence herbicidal rating GLXMAW: 0.0
[2]; rate 0.0313 kg/ha
  Preemergence herbicidal rating GLXMAW: 0.0
[2]; rate 0.0625 kg/ha
  Preemergence herbicidal rating GLXMAW: 1.0
[2]; rate 0.1250 kg/ha
  Preemergence herbicidal rating GLXMAW: 3.0
[2]; rate 0.2500 kg/ha
  Preemergence herbicidal rating GLXMAW: 4.0
CASOB (Sicklepod); rate 0.0156 kg/ha
  Preemergence herbicidal rating CASOB: 2.0
CASOB (Sicklepod); rate 0.0625 kg/ha
  Preemergence herbicidal rating CASOB: 0.0
CASOB (Sicklepod); rate 0.1250 kg/ha
  Preemergence herbicidal rating CASOB: 4.0
CASOB (Sicklepod); rate 0.2500 kg/ha
  Preemergence herbicidal rating CASOB: 2.0
ORYSAT (Rice, Tebonnet) [3]; rate 0.0156 kg/ha
  Preemergence herbicidal rating ORYSAT: 0.0
ORYSAT (Rice, Tebonnet) [3]; rate 0.0313 kg/ha
  Preemergence herbicidal rating ORYSAT: 0.0
ORYSAT (Rice, Tebonnet) [3]; rate 0.0625 kg/ha
  Preemergence herbicidal rating ORYSAT: 0.0
ORYSAT (Rice, Tebonnet) [3]; rate 0.1250 kg/ha
  Preemergence herbicidal rating ORYSAT: 1.0
ORYSAT (Rice, Tebonnet) [3]; rate 0.2500 kg/ha
  Preemergence herbicidal rating ORYSAT: 3.0
[4]; 0.0313 kg/ha
  ECHORC herbicidal effect rating: 4.0
[4]; 0.0625 kg/ha
  ECHORC herbicidal effect rating: 4.0
[4]; 0.1250 kg/ha
  ECHORC herbicidal effect rating: 5.0
[4]; 0.2500 kg/ha
  ECHORC herbicidal effect rating: 5.0
[5]; 0.0313 kg/ha
  SAGPY herbicidal effect rating: 2.0
[5]; 0.0625 kg/ha
  SAGPY herbicidal effect rating: 3.0
[5]; 0.1250 kg/ha
  SAGPY herbicidal effect rating: 5.0
[5]; 0.2500 kg/ha
  SAGPY herbicidal effect rating: 6.0
ZEAMX (Corn, Field); rate 0.0158 kg/ha
  Herbicidal rating ZEAMX: 5.0
ZEAMX (Corn, Field); rate 0.0315 kg/ha
  Herbicidal rating ZEAMX: 6.5
ZEAMX (Corn, Field); rate 0.0630 kg/ha
  Herbicidal rating ZEAMX: 7.0
GALAP (Galium); rate 0.0156 kg/ha
  Preemergence herbicidal rating GALAP: 1.0
GALAP (Galium); rate 0.0313 kg/ha
  Preemergence herbicidal rating GALAP: 3.0
GALAP (Galium); rate 0.0625 kg/ha
  Preemergence herbicidal rating GALAP: 3.0
GALAP (Galium); rate 0.1250 kg/ha
  Preemergence herbicidal rating GALAP: 7.0
GALAP (Galium); rate 0.2500 kg/ha
  Preemergence herbicidal rating GALAP: 9.0
AMBEL (Ragweed, Common) [6]; rate 0.0158 kg/ha
  Herbicidal rating AMBEL: 1.0
AMBEL (Ragweed, Common) [6]; rate 0.0315 kg/ha
  Herbicidal rating AMBEL: 6.0
AMBEL (Ragweed, Common) [6]; rate 0.0630 kg/ha
  Herbicidal rating AMBEL: 7.0
[7]; rate 0.0156 kg/ha
  Preemergence herbicidal rating TRZAWR: 0.0
[7]; rate 0.0313 kg/ha
  Preemergence herbicidal rating TRZAWR: 0.0
[7]; rate 0.0625 kg/ha
  Preemergence herbicidal rating TRZAWR: 0.0
[7]; rate 0.1250 kg/ha
  Preemergence herbicidal rating TRZAWR: 0.0
[7]; rate 0.2500 kg/ha
  Preemergence herbicidal rating TRZAWR: 4.0
ABUTH (Velvetleaf); rate 0.0158 kg/ha
  Herbicidal rating ABUTH: 3.0
ABUTH (Velvetleaf); rate 0.0315 kg/ha
  Herbicidal rating ABUTH: 9.0
ABUTH (Velvetleaf); rate 0.0630 kg/ha
  Herbicidal rating ABUTH: 9.0
CYPSE (Flatsedge); 0.0313 kg/ha
  CYPSE herbicidal effect rating: 0.0
CYPSE (Flatsedge); 0.0625 kg/ha
  CYPSE herbicidal effect rating: 0.0
CYPSE (Flatsedge); 0.2500 kg/ha
  CYPSE herbicidal effect rating: 6.0
[8]; rate 0.0156 kg/ha
  Preemergence herbicidal rating IPOHE: 0.0
[8]; rate 0.0313 kg/ha
  Preemergence herbicidal rating IPOHE: 0.0
[8]; rate 0.0625 kg/ha
  Preemergence herbicidal rating IPOHE: 0.0
[8]; rate 0.1250 kg/ha
  Preemergence herbicidal rating IPOHE: 2.0
[8]; rate 0.2500 kg/ha
  Preemergence herbicidal rating IPOHE: 7.0
SETVI (Foxtail, Green); rate 0.0156 kg/ha
  Preemergence herbicidal rating SETVI: 1.0
SETVI (Foxtail, Green); rate 0.0313 kg/ha
  Preemergence herbicidal rating SETVI: 0.0
SETVI (Foxtail, Green); rate 0.0625 kg/ha
  Preemergence herbicidal rating SETVI: 0.0
SETVI (Foxtail, Green); rate 0.1250 kg/ha
  Preemergence herbicidal rating SETVI: 0.0
SETVI (Foxtail, Green); rate 0.2500 kg/ha
  Preemergence herbicidal rating SETVI: 4.0
[9]; rate 0.0313 kg/ha
  Preemergence herbicidal rating CHEAL: 5.0
[9]; rate 0.0625 kg/ha
  Preemergence herbicidal rating CHEAL: 7.0
[9]; rate 0.1250 kg/ha
  Preemergence herbicidal rating CHEAL: 9.0
[9]; rate 0.2500 kg/ha
  Preemergence herbicidal rating CHEAL: 9.0
AMBEL (Ragweed, Common) [10]; rate 0.0156 kg/ha
  Preemergence herbicidal rating AMBEL: 0.0
AMBEL (Ragweed, Common) [10]; rate 0.0313 kg/ha
  Preemergence herbicidal rating AMBEL: 0.0
AMBEL (Ragweed, Common) [10]; rate 0.0625 kg/ha
  Preemergence herbicidal rating AMBEL: 0.0
AMBEL (Ragweed, Common) [10]; rate 0.1250 kg/ha
  Preemergence herbicidal rating AMBEL: 0.0
AMBEL (Ragweed, Common) [10]; rate 0.2500 kg/ha
  Preemergence herbicidal rating AMBEL: 1.0

Reference: US20020137929A1, “1 - (3-heterocyclylphenyl) isothiourea, -isourea, -guanidine and -amidine herbicidal agents” (Intellectual Property Department, BASF Aktiengesellschaft, priority 1998, published 2002)
